Values after ≈ are worked out from the molar mass of the structure shown. “Also recorded” adds a separate entry of the source. Where two headings read alike, the source gives them in different places. Each block holds one molecule with its values, some of them ahead of it.
Legend:
P. falciparum cyt bc1 = P. falciparum cyt bc1 (Plasmodium falciparum, UniProt Q02768); conditions: cited from earlier work
[1] = system: multidrug resistant P. falciparum strains; conditions: cited from earlier work
[2] = cited by Chatterjee, CALIBR model system; cited from earlier work
[3] = human microsomes; cited from earlier work
malaria-infected mice = conditions: cited from earlier work
ATV resistant parasites = conditions: cited from earlier work
[4] = rat microsomes; cited from earlier work
[5] = mouse microsomes; cited from earlier work
[6] = Pharmacokinetics of intramuscular (im) injections of ELQ-300 prodrugs in sesame oil in mice; format: in vivo; conditions: at every time point after im injection, Trial 2
Experimental: We dissolved ELQ-331 in sesame oil and administered (30 mg/kg) in a single […] injection into the caudal thigh of mice in two separate trials. Trial 1 served as a pilot study to monitor ELQ-300 blood levels for months following a single im injection. In Trial 2 we adjusted the LC-MS/MS chromatographic protocol to capture prodrug [ELQ-331] as well as [ELQ-300] with early time-points to cover the critical burst phase, a phenomenon known as “dose dumping”. […] In Trial 2, we monitored plasma [ELQ-331] and [ELQ-300] starting 6 hours after im injection. To avoid excessive blood draws, 6 different groups of 4 mice, all treated at the same time, were used in a rotating succession, one group for each time point. FIG. 1 depicts Plasma [ELQ-300], nM, following im injection in mice of 30 mg/kg ELQ-331 (prodrug) in sesame oil. […] At all time-points the [ELQ-300] concentration exceeds the Minimum Fully Effective Concentration (MEC100) of ≈60 nM. All data points are the average values±SEM.
Also shown in FIG. 5 is a composite plot of plasma [ELQ-300] from both trials with remarkable consistency in the results. ELQ-331 outperformed the CALIBR ELQ-300 prodrug (mCAR246) profiled at the 2017 ASTMH meeting by a significant margin, i.e., Day 28 bloodstream [ELQ-300] levels for mCAR246=181±59 (30 mg/kg, unknown formulation) vs. 446±22 nM (avg.±SEM) for prodrug ELQ-331 in (30 mg/kg, sesame oil).

[7] = system: patent malaria infections in mice; conditions: oral drug delivery, single dose; cited from earlier work
[8] = Estimation of compound solubility in sesame oil; format: physicochemical; conditions: room temperature, remained in solution for at least 72 hrs; for solubility: sesame oil, oil or lipid, thermodynamic from solid
Experimental: Generalized method for estimation of compound solubility in sesame oil: Sesame oil (10 μl) was dispensed into a glass vial containing 10 mg of the appropriate ELQ-300 prodrug. The mixture was vortexed and warmed (using a heat gun) to aid dissolution. The solubility of the compound was judged after the sesame oil mixture cooled to room temperature. If the compound was not completely dissolved, additional sesame oil was added in low-volume increments. Importantly, complete dissolution was assured by confirming by visual inspection that the compound remained in solution for at least 72 hrs at room temperature.

[9] = system: P. yoelii luciferase expressing parasites (PyXNL non-lethal strain, luc+); assay: Protection against P. yoelii sporozoite-induced infection in mice (bioluminescence imaging); format: in vivo, Plasmodium yoelii
Experimental: Animals receiving an im injection of 30 mg/kg ELQ-331 in sesame oil were challenged by inoculation with 10,000 P. yoelii luciferase expressing parasites (PyXNL non-lethal strain, luc^+) at two different time points, 48 days and 137 days post im injection (Note that separate groups of mice were used for these two challenges). For details of our experimental methods please refer to the work proposed section as well as published papers by Qigui Li (17) and Kami Kim (18). Sporozoites were obtained by dissection of infected mosquitoes, A. stephensi, and purification over glass wool with assistance from Dr. Brandon Wilder (formerly Sack), who recently joined the OHSU faculty (see letter of collaboration). Non-invasive whole animal
Bioluminescence imaging (BLI) was used to evaluate all study animals for the presence of liver stage infection using an IVIS Spectrum imager. Briefly, on the day of analysis mice received a single ip injection with a luciferin solution roughly 10 minutes before imaging. Each animal was placed on the IVIS platform with gaseous isoflurane serving as anesthetic. […] Of interest, we also challenged animals that had received an im injection (dissolved in sesame oil) of two similar ELQ-300 prodrugs, PSPS-173 and PSP6-16F.
Bioluminescent imaging (FIG. 2) was used to analyze the protective effect of im ELQ-300 prodrugs on Plasmodium yoelii liver stages. Mice were infected by inoculation with 10,000 Plasmodium yoelii GFP/luciferase expressing parasites (PyXNL non-lethal strain, luc*). As described in the narrative infected mice received sporozoite injections 48 days and 137 days following im injection with selected ELQ-300 prodrugs dissolved in sesame oil. After sporozoite challenge, mice underwent imaging for detection of bioluminescent signal after 24 and 48 hours and then again on Day 6 post-inoculation. Control mice show bioluminescent signal in the region above the liver of anesthetized mice after 24 hours which becomes more intense by 48 hours after which parasites emerge into the bloodstream as evidenced by widespread signal intensity across the entire animal by 6-days post inoculation.

[10] = challenge 137 days (4½ months) after single im injection in sesame oil

Chain of P. falciparum cyt bc1 (Q02768 whole entry): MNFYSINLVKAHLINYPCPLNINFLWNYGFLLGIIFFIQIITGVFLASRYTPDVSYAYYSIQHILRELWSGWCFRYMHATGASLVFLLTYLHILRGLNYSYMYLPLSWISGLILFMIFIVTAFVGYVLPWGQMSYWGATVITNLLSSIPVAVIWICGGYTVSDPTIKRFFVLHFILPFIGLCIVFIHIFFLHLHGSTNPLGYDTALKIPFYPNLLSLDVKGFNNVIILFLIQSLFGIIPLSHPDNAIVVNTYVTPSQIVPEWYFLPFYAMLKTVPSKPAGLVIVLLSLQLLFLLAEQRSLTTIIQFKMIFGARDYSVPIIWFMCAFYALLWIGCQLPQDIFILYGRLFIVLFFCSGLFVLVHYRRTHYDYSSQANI

Compound: COc1cc2[nH]c(C)c(-c3ccc(Oc4ccc(OC(F)(F)F)cc4)cc3)c(=O)c2cc1Cl [ELQ-300, 6-Chloro-7-methoxy-2-methyl-3-[4-[4-(trifluoromethoxy)phenoxy]phenyl]-4(1H)-quinolinone]
selectivity for the parasite over the host cyt bc1 (P. falciparum cyt bc1): 10,000 fold | IC50's vs. multidrug resistant P. falciparum strains [1]: low nanomolar | minimum effective concentration (plasma ELQ-300) [2]: 83 nM | metabolic stability [3]: metabolically stable | ED50 (malaria-infected mice; 4-day Peters Test): 0.02 mg/kg | curative dose (malaria-infected mice; 4-day Peters Test): 0.3 to 1 mg/kg | fold more effective than ATV in vivo in treatment of malaria-infected mice (malaria-infected mice; relative to ATV): 30 fold | potency vs. ATV resistant parasites (ATV resistant parasites): equal potency | metabolic stability [4]: metabolically stable | metabolic stability [5]: metabolically stable

Compound: CCOC(=O)OCOc1c(-c2ccc(Oc3ccc(OC(F)(F)F)cc3)cc2)c(C)nc2cc(OC)c(Cl)cc12 [ELQ-331, ((6-chloro-7-methoxy-2-methyl-3-(4-(4-(trifluoromethoxy)phenoxy)phenyl)quinolin-4-yl)oxy) methyl ethyl carbonate]
ratio of ELQ-300/ELQ-331 in plasma [6]: very large | cure of patent malaria infections in mice [7]: single dose cures | solubility [8]: 125 mg/mL (≈ 216 mM) | protection against sporozoite challenge ([9]; challenge 48 days after single im injection in sesame oil): fully protected | protection against sporozoite challenge [9, 10]: complete protection; also recorded: fully protected | duration of protection in mice with a single im injection ([9]; single im injection): more than 4 months | bioluminescent signal (liver stage infection) ([9]; sporozoite challenge 48 days after 30 mg/kg im injection (Trial 2)): no detectable bioluminescent signal | bioluminescent signal (liver stage infection) ([9]; sporozoite challenge 137 days after 30 mg/kg im injection (Trial 1)): no detectable bioluminescent signal

Compound: COC(=O)OCOc1c(-c2ccc(Oc3ccc(OC(F)(F)F)cc3)cc2)c(C)nc2cc(OC)c(Cl)cc12 [ELQ-487]
Sesame Oil Solubility [8]: 91 mg/mL

Compound: CCCOC(=O)OCOc1c(-c2ccc(Oc3ccc(OC(F)(F)F)cc3)cc2)c(C)nc2cc(OC)c(Cl)cc12 [ELQ-488]
Sesame Oil Solubility [8]: 83 mg/mL

Compound: CCCCCCCOC(=O)OCOc1c(-c2ccc(Oc3ccc(OC(F)(F)F)cc3)cc2)c(C)nc2cc(OC)c(Cl)cc12 [ELQ-492, ((6-chloro-7-methoxy-2-methyl-3-(4-(4-(trifluoromethoxy)phenoxy)phenyl)quinolin-4-yl)oxy)methyl heptyl carbonate]
solubility [8]: 71 mg/mL (≈ 110 mM)

Compound: CCCCCCCOC(=O)OCOc1c(-c2ccc(Oc3ccc(OC(F)(F)F)cc3)cc2)c(C)nc2cc(OC)c(Cl)cc12 [PSP5-173]
protection against sporozoite challenge [9, 10]: partially protected | mice that developed blood stage infection ([9]; challenge 137 days after im injection): One of three

Continued, values first:

Sesame Oil Solubility [8]: 71 mg/mL
Compound: CCCCOC(=O)OCOc1c(-c2ccc(Oc3ccc(OC(F)(F)F)cc3)cc2)c(C)nc2cc(OC)c(Cl)cc12 [ELQ-489]

solubility [8]: 83 mg/mL (≈ 134 mM) | melting point: 109 °C
Compound: CCCCCOC(=O)OCOc1c(-c2ccc(Oc3ccc(OC(F)(F)F)cc3)cc2)c(C)nc2cc(OC)c(Cl)cc12 [ELQ-490, ((6-chloro-7-methoxy-2-methyl-3-(4-(4-(trifluoromethoxy)phenoxy)phenyl)quinolin-4-yl)oxy)methyl pentyl carbonate]

solubility [8]: 100 mg/mL (≈ 158 mM) | melting point: 79 °C
Compound: CCCCCCOC(=O)OCOc1c(-c2ccc(Oc3ccc(OC(F)(F)F)cc3)cc2)c(C)nc2cc(OC)c(Cl)cc12 [ELQ-491, ((6-chloro-7-methoxy-2-methyl-3-(4-(4-(trifluoromethoxy)phenoxy)phenyl)quinolin-4-yl)oxy)methyl hexyl carbonate]

solubility [8]: 100 mg/mL (≈ 151 mM) | melting point: 54 °C
Compound: CCCCCCCCOC(=O)OCOc1c(-c2ccc(Oc3ccc(OC(F)(F)F)cc3)cc2)c(C)nc2cc(OC)c(Cl)cc12 [ELQ-493, ((6-chloro-7-methoxy-2-methyl-3-(4-(4-(trifluoromethoxy)phenoxy)phenyl)quinolin-4-yl)oxy)methyl octyl carbonate]

Sesame Oil Solubility [8]: 333 mg/mL
Compound: CCCCCCCCCOC(=O)OCOc1c(-c2ccc(Oc3ccc(OC(F)(F)F)cc3)cc2)c(C)nc2cc(OC)c(Cl)cc12 [ELQ-494]

solubility [8]: ≥ 500 mg/mL | melting point: 55 °C
Compound: CCCCCCCCCCOC(=O)OCOc1c(-c2ccc(Oc3ccc(OC(F)(F)F)cc3)cc2)c(C)nc2cc(OC)c(Cl)cc12 [ELQ-495, ((6-chloro-7-methoxy-2-methyl-3-(4-(4-(trifluoromethoxy)phenoxy)phenyl)quinolin-4-yl)oxy)methyl decyl carbonate]
